In ChEMBL document CHEMBL1139937, “Novel 3-galloylamido-N'-substituted-2,6-piperidinedione-N-acetamide peptidomimetics as metalloproteinase inhibitors” (Bioorg Med Chem Lett, 2007) one finds IC50 data, which are given here for 22 compounds.

One experiment has as its target T1, Aminopeptidase N (Sus scrofa, UniProt P15145).
T1 sequence (P15145 whole entry): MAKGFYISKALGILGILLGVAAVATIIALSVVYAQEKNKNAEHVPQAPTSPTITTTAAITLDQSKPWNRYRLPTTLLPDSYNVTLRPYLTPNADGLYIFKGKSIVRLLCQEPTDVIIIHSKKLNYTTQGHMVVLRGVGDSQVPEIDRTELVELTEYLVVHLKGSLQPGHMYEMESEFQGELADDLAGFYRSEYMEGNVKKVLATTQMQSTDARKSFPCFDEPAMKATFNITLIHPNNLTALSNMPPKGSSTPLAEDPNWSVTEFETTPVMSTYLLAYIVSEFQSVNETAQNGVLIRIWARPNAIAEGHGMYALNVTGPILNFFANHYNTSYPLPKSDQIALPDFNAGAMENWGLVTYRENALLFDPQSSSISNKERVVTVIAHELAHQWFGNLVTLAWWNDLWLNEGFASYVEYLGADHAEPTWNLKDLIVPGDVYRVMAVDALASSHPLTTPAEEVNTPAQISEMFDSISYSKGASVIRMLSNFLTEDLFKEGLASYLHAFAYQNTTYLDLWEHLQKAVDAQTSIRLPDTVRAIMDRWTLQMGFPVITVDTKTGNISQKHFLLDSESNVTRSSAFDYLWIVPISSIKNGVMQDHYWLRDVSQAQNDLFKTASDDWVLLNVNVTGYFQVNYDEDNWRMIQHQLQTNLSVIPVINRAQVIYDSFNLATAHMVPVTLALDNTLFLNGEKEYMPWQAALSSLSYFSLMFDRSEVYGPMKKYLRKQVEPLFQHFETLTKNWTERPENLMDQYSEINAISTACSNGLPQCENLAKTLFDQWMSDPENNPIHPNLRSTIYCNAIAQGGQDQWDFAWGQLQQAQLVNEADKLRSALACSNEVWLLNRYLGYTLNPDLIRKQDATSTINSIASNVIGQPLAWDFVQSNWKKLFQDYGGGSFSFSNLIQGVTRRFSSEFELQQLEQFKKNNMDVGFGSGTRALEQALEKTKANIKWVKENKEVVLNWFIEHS
The experiment is described as follows: Inhibition of pig kidney microsomal aminopeptidase assessed as liberation of p-nitroanilide.

Experiment [1] concerns the target 72 kDa type IV collagenase (Homo sapiens, UniProt P08253). Kind of experiment: Inhibition of MMP2 after 30 mins.

The structures appear in SMILES notation.

72 kDa type IV collagenase, sequence (P08253 whole entry): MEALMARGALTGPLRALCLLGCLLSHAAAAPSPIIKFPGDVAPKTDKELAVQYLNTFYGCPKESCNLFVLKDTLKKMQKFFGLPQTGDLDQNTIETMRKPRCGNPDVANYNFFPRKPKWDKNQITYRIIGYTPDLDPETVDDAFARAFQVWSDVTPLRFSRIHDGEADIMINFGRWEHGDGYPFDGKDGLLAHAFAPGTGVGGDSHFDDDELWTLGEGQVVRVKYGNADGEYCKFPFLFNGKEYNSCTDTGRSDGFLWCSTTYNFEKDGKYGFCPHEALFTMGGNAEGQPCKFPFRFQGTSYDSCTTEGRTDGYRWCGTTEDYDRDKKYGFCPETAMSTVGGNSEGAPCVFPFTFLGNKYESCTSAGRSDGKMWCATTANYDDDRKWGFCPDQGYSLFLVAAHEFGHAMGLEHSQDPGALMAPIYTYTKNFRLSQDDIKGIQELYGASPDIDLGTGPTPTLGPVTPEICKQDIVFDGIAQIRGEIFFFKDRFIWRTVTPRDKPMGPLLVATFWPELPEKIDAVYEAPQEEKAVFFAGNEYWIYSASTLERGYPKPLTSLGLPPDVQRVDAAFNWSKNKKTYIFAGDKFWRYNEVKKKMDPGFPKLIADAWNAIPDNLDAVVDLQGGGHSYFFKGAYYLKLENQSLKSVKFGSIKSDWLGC

Regarding `COC(=O)CCNC(=O)CN1C(=O)CC[C@H](NC(=O)c2cc(OC)c(OC)c(OC)c2)C1=O`, the IC50 (commonly the midpoint of a concentration-inhibition curve) came to 53.7 µM on Aminopeptidase N and 2.2 µM in experiment [1]. For `COC(=O)[C@H](Cc1cnc[nH]1)NC(=O)CN1C(=O)CC[C@H](NC(=O)c2cc(OC)c(OC)c(OC)c2)C1=O` the same measures were 5.2 µM and 13 µM. For `COC(=O)CNC(=O)CN1C(=O)CC[C@H](NC(=O)c2cc(OC)c(OC)c(OC)c2)C1=O`, in that order: 55.4 µM and 4.4 µM. For `COC(=O)[C@@H](NC(=O)CN1C(=O)CC[C@H](NC(=O)c2cc(OC)c(OC)c(OC)c2)C1=O)C(C)C`, in that order: 21.4 µM and 1 µM.

For the compound `COC(=O)[C@H](CCCNC(N)=N[N+](=O)[O-])NC(=O)CN1C(=O)CC[C@H](NC(=O)c2cc(OC)c(OC)c(OC)c2)C1=O`, the IC50 at Aminopeptidase N was found to be 42 µM; in experiment [1], 0.3 µM.

Regarding `COC(=O)C[C@H](NC(=O)CN1C(=O)CC[C@H](NC(=O)c2cc(OC)c(OC)c(OC)c2)C1=O)C(=O)OC`, the IC50 on Aminopeptidase N was 21.7 µM; in experiment [1] it was 0.5 µM. As to `COC(=O)[C@@H](NC(=O)CN1C(=O)CC[C@H](NC(=O)c2cc(OC)c(OC)c(OC)c2)C1=O)[C@@H](C)O`, the IC50 was found to be 51.9 µM on Aminopeptidase N and 1.8 µM in experiment [1]. Regarding `COC(=O)[C@H](C)NC(=O)CN1C(=O)CC[C@H](NC(=O)c2cc(OC)c(OC)c(OC)c2)C1=O`, the IC50 worked out at 18.9 µM on Aminopeptidase N and 1.2 µM in experiment [1]. For `COc1cc(C(=O)N[C@H]2CCC(=O)N(CC(=O)O)C2=O)cc(OC)c1OC`, in that order: 49.8 µM and 4 µM.

For `CC(C)C[C@H](NC(=O)[C@@H](O)[C@H](N)Cc1ccccc1)C(=O)O` [UBENIMEX], the IC50 in experiment [1] came to 3.4 µM. In the case of `COC(=O)[C@H](Cc1c[nH]c2ccccc12)NC(=O)CN1C(=O)CC[C@H](NC(=O)c2cc(OC)c(OC)c(OC)c2)C1=O`, the IC50 was 43.1 µM on Aminopeptidase N and 1.2 µM in experiment [1].

In the case of `COC(=O)[C@@H](Cc1ccccc1)NC(=O)CN1C(=O)CC[C@H](NC(=O)c2cc(OC)c(OC)c(OC)c2)C1=O`, the half-inhibitory concentration (IC50) at Aminopeptidase N stood at 46.2 µM; in experiment [1], 1.4 µM.

`COC(=O)[C@H](Cc1ccc(O)cc1)NC(=O)CN1C(=O)CC[C@H](NC(=O)c2cc(OC)c(OC)c(OC)c2)C1=O`: the values for the IC50 (at Aminopeptidase N; in experiment [1]) were 44.8 µM and 0.3 µM, respectively.

With `COC(=O)[C@](C)(Cl)NC(=O)CN1C(=O)CC[C@H](NC(=O)c2cc(OC)c(OC)c(OC)c2)C1=O`, the results for the IC50 (at Aminopeptidase N; in experiment [1]) were 50 µM and 15.6 µM, respectively. In the case of `COC(=O)[C@H](CS)NC(=O)CN1C(=O)CC[C@H](NC(=O)c2cc(OC)c(OC)c(OC)c2)C1=O`, the half-inhibitory concentration (IC50) at Aminopeptidase N was determined as 50.3 µM; in experiment [1], 1.7 µM. For the compound `CC[C@H](C)[C@H](NC(=O)CN1C(=O)CC[C@H](NC(=O)c2cc(OC)c(OC)c(OC)c2)C1=O)C(=O)OC`, the IC50 came out at 49.3 µM on Aminopeptidase N and 4.3 µM in experiment [1]. For the compound `COC(=O)[C@H](Cc1ccccc1)NC(=O)CN1C(=O)CC[C@H](NC(=O)c2cc(OC)c(OC)c(OC)c2)C1=O`, the IC50 on Aminopeptidase N was determined as 11 µM; in experiment [1] it was 1.3 µM. For the compound `COC(=O)[C@H](CCCCNC(=O)c1ccccc1)NC(=O)CN1C(=O)CC[C@H](NC(=O)c2cc(OC)c(OC)c(OC)c2)C1=O`, the IC50 on Aminopeptidase N was found to be 38.1 µM; in experiment [1] it was 0.6 µM.

As for `COc1cc(C(=O)N[C@H]2CCC(=O)N(CC(=O)NO)C2=O)cc(OC)c1OC`, the values for the IC50 (on Aminopeptidase N; in experiment [1]) were 3.1 µM and 2.2 µM, respectively. `COC(=O)[C@H](CCSC)NC(=O)CN1C(=O)CC[C@H](NC(=O)c2cc(OC)c(OC)c(OC)c2)C1=O`: the figures for the IC50 (on Aminopeptidase N; in experiment [1]) were 20.7 µM and 1.2 µM, respectively.

In the case of `COC(=O)[C@H](CC(C)C)NC(=O)CN1C(=O)CC[C@H](NC(=O)c2cc(OC)c(OC)c(OC)c2)C1=O`, the IC50 on Aminopeptidase N was 46.2 µM; in experiment [1], 3.8 µM. For `COC(=O)CN1C(=O)CC[C@H](NC(=O)c2cc(OC)c(OC)c(OC)c2)C1=O`, in that order: 63.4 µM and 10.6 µM.
